Results taken from paper PMC8901179 (Journal of medicinal chemistry, 2019).

How the values were obtained:
mouse behavioral rhythms [1] = settings: cited from earlier work
Bmal1-dLuc U2OS cells [2] = test: Cell-based circadian assay; settings: for fold more potent than longdaysin (period lengthening): relative to longdaysin
374 kinases = test: Profiling toward 374 kinases; format: biochemical; settings: 5 μM compound
mouse behavioral rhythms [3] = test: Circadian behavior measurement, infusion into the lateral ventricle; format: in vivo, mice; settings: 1 mM infusion, constant darkness
Bmal1-dLuc U2OS cells [4] = settings: cited from earlier work

Row | SMILES | period lengthening activity (in words) (Bmal1-dLuc U2OS cells [2]) | fold more potent than longdaysin (period lengthening) (Bmal1-dLuc U2OS cells [2]) | further results
1 | Nc1nccc(-c2c(-c3ccc(F)cc3)ncn2C2CCCCC2)n1 [PF-670462] |  |  | period change in vivo (in words) (mouse behavioral rhythms [1]): only small period change in vivo
2 | CC(C1CC1)n1cnc2c(N(C)Cc3cccc(C(F)(F)F)c3)nc(NCCN(C)C)nc21 (stereo not shown) [7c, 9-(1-Cyclopropylethyl)-N2-(2-(dimethylamino)ethyl)-N6-methyl-N6-(3-(trifluoromethyl)benzyl)-9H-purine-2,6-diamine] | dramatic decrease in the period lengthening activity |  | 
3 | CC(C1CC1)n1cnc2c(OCc3cccc(C(F)(F)F)c3)nc(NCCN(C)C)nc21 (stereo not shown) [7d, N1-(9-(1-Cyclopropylethyl)-6-((3-(trifluoromethyl)benzyl)oxy)-9H-purin-2-yl)-N2,N2-dimethylethane-1,2-diamine] | dramatic decrease in the period lengthening activity |  | 
4 | CC(C)n1cnc2c(NCc3cccc(C(F)(F)F)c3)nc(NCCN(C)C)nc21 [6a, N2-(2-(Dimethylamino)ethyl)-9-isopropyl-N6-(3-(trifluoromethyl)benzyl)-9H-purine-2,6-diamine] |  | ~ 3 fold | 
5 | CC(C1CC1)n1cnc2c(NCc3cccc(C(F)(F)F)c3)nc(NCCN(C)C)nc21 (stereo not shown) [7b, 9-(1-Cyclopropylethyl)-N2-(2-(dimethylamino)ethyl)-N6-(3-(trifluoromethyl)benzyl)-9H-purine-2,6-diamine] |  | ~ 10 fold | number of kinases among 374 kinases inhibited by more than 50% (374 kinases): 9
6 | CC(C1CC1)n1cnc2c(NCc3cccc(C(F)(F)F)c3)ncnc21 (stereo not shown) [7a] |  | ~ 3 fold | 
7 | CC(C)n1cnc2c(NCc3cccc(C(F)(F)F)c3)ncnc21 [longdaysin] |  |  | fold more potent than benipurine (1 h period lengthening) (Bmal1-dLuc U2OS cells [2]; relative to benipurine): 3 fold; period lengthening of circadian behavior (mouse behavioral rhythms [3]): about 0.05 h; compound concentration for 1 h period lengthening (Bmal1-dLuc U2OS cells [4]): 0.3 µM
8 | CC(C)n1cnc2c(NCc3cccc(C(F)(F)F)c3)nc(NCCN)nc21 [6k, N2-(2-Aminoethyl)-9-isopropyl-N6-(3-(trifluoromethyl)benzyl)-9H-purine-2,6-diamine] | much less activity compared to 6a |  | 
9 | CC(C)n1cnc2c(NCc3cccc(C(F)(F)F)c3)nc(N3CCC(O)CC3)nc21 [6d, 1-(9-Isopropyl-6-((3-(trifluoromethyl)benzyl)amino)-9H-purin-2-yl)piperidin-4-ol] | decreased activity |  | 
10 | CC(C)n1cnc2c(NCc3cccc(C(F)(F)F)c3)nc(NCCN3CCOCC3)nc21 [6f, 9-Isopropyl-N2-(2-morpholinoethyl)-N6-(3-(trifluoromethyl)-benzyl)-9H-purine-2,6-diamine] | decreased activity |  | 
